Results taken from article PMC4727781, “Tanzawaic Acids, a Chemically Novel Set of Bacterial Conjugation Inhibitors” (PLoS ONE, 2016).
Like-named read-outs stand apart in the source and are kept apart here.

Columns and labels:
[1] = system: R388 conjugation (R388 derivative pJC01); assay: fluorescence-based HTC assay; format: cell-based, E. coli; conditions: for IC50: Escherichia coli, read-out: COIN-IC50
[2] = system: IncW plasmid R388 conjugation; assay: plate-conjugation assay, R388; format: cell-based, E. coli; conditions: for COIN activity on R388 conjugation (CF): 1 mM
Experimental: (§1) For the plate-mating procedure, a 200 μl mixture of equal volumes of donor and recipient cultures previously washed, both in stationary phase, was centrifuged and resuspended in 15 μl LB-broth. 5 μl of this mixture were placed on top of 96-well microtiter plate wells containing 150 μl LB-agar (± COINs) and conjugation was allowed to proceed, in general, for 1 h at 37°C. The temperature-sensitive IncH plasmid drR27 was allowed to conjugate for 2 h at 25°C [35]. Bacteria were then resuspended in 150 μl M9 broth and corresponding dilutions were plated on selective media. CF was calculated as the number of transconjugant cells per donor, whereas MF was calculated as the number of cells receiving the mobilizable plasmid per donor. Since this type of frequency data were log-normally distributed, means are calculated using decimal logarithms of data.

[3] = system: lung carcinoma cells A549; assay: cell culture cytotoxicity assay, A549; format: cell-based; conditions: Homo sapiens, mean of three independent experiments, read-out: Toxic-IC50 A549
Experimental: (§2) Cell culture cytotoxicity assays were performed as described using human foreskin fibroblasts ATCC SCRC-1041 [38], lung carcinoma cells A549 [39], colorectal carcinoma cells HCT-116 [40], pancreatic adenocarcinoma cells PNS1 [41] or glioblastoma multiforme cells T98G [42]. Antibacterial activity was determined using a conventional microtiter broth-dilution technique for two reference strains, S. aureus CECT 794 and M. smegmatis DSMZ 43756. Antifungal activity was measured using the reference method antifungal broth dilution susceptibility test (National Committee for Clinical Laboratory Standars) against two species: A. nidulans (Microorganisms Collection of Biomar Microbial Technologies) and C. albicans CECT 1394.

[4] = system: colorectal carcinoma cells HCT-116; assay: cell culture cytotoxicity assay, HCT-116; format: cell-based; conditions: Homo sapiens, mean of three independent experiments, read-out: Toxic-IC50 HCT-116
Experimental: as §2

[5] = system: PSN1 pancreatic adenocarcinoma cells; assay: cell culture cytotoxicity assay, PSN1; format: cell-based; conditions: Homo sapiens, mean of three independent experiments, read-out: Toxic-IC50 PSN1
Experimental: as §2

[6] = system: glioblastoma multiforme cells T98G; assay: cell culture cytotoxicity assay, T98G; format: cell-based; conditions: Homo sapiens, mean of three independent experiments, read-out: Toxic-IC50 T98G
Experimental: as §2

[7] = system: human foreskin fibroblasts ATCC SCRC-1041; assay: cell culture cytotoxicity assay, fibroblasts; format: cell-based; conditions: Fibroblast, mean of three independent experiments, read-out: Toxic-IC50 Fibroblasts
Experimental: as §2

S. aureus CECT 794 = assay: antibacterial activity, microtiter broth-dilution, S. aureus; format: cell-based; conditions: Staphylococcus aureus, CECT794, mean of three independent experiments, read-out: Toxic-IC90 Saur
Experimental: as §2

M. smegmatis DSMZ 43756 = assay: antibacterial activity, microtiter broth-dilution, M. smegmatis; format: cell-based, Mycobacterium smegmatis; conditions: Mycolicibacterium smegmatis, DSMZ43756, mean of three independent experiments, read-out: Toxic-IC90 Msme
Experimental: as §2

A. nidulans = assay: antifungal broth dilution susceptibility test, A. nidulans; format: cell-based; conditions: Aspergillus nidulans, mean of three independent experiments, read-out: Toxic-IC90 Anid
Experimental: as §2

C. albicans CECT 1394 = assay: antifungal broth dilution susceptibility test, C. albicans; format: cell-based; conditions: Candida albicans, CECT1394, mean of three independent experiments, read-out: Toxic-IC90 Calb
Experimental: as §2

[8] = system: bacterial and fungal strains; assay: antibacterial and antifungal activities (summary statement); format: cell-based; conditions: summary of Table 1; read-out: toxic-IC90 values, antibacterial and antifungal activities
Experimental: as §2

Magnaporthe oryzae = conditions: read-out: toxic-IC50, inhibition of conidial germination; cited from earlier work
Brevibacillus brevis = system: Brevibacillus brevis; design: method as in PMID 24605144; conditions: at a concentration of 185 μM; cited from earlier work
Mucor miehei = system: Mucor miehei; design: method as in PMID 24605144; conditions: at a concentration of 185 μM; cited from earlier work
Paecilomyces variotii = system: Paecilomyces variotii; design: method as in PMID 24605144; conditions: at a concentration of 185 μM; cited from earlier work
HeLaS3 cells = system: HeLaS3 cells; design: method as in PMID 24605144; conditions: at a concentration of 185 μM; cited from earlier work
Botrytis cinerea = system: Botrytis cinerea; design: method as in PMID 24605144; conditions: at comparable concentrations; cited from earlier work
Phytophthora infestans = conditions: at comparable concentrations; cited from earlier work
[9] = system: superoxide anion production; conditions: cited from earlier work
[10] = system: IncFII plasmid R100-1 conjugation; assay: plate-conjugation assay, R100-1; format: cell-based, E. coli; conditions: 0.4 mM
Experimental: as §1

IncN plasmid conjugation = assay: plate-conjugation assay, IncN plasmids; format: cell-based, E. coli; conditions: 0.4 mM
Experimental: as §1

IncP plasmid conjugation = assay: plate-conjugation assay, IncP plasmids; format: cell-based, E. coli; conditions: 0.4 mM
Experimental: as §1

mobilization of CloDF13 = assay: mobilization by plate-conjugation assay, CloDF13; format: cell-based, E. coli; conditions: 0.4 mM; helper plasmid R388, pOX38 or R100-1
Experimental: as §1

mobilization of ColE1 = assay: mobilization by plate-conjugation assay, ColE1; format: cell-based, E. coli; conditions: 0.4 mM
Experimental: as §1

mobilization of RSF1010 = assay: mobilization by plate-conjugation assay, RSF1010; format: cell-based, E. coli; conditions: 0.4 mM; helper plasmid pRL443
Experimental: as §1

Klebsiella pneumoniae = system: Klebsiella pneumoniae; design: method as in PMID 26055397; conditions: cited from earlier work
Bacillus cereus = system: Bacillus cereus; design: method as in PMID 26055397; conditions: cited from earlier work
Proteus mirabilis = system: Proteus mirabilis; design: method as in PMID 26055397; conditions: cited from earlier work
Enterococcus faecalis = system: Enterococcus faecalis; design: method as in PMID 26055397; conditions: cited from earlier work
C. albicans = system: C. albicans; design: method as in PMID 26055397; conditions: cited from earlier work
K562 = system: K562; design: method as in PMID 26055397; conditions: at 100 μM; cited from earlier work
U937 = system: U937; design: method as in PMID 26055397; conditions: at 100 μM; cited from earlier work
Jurkat = system: Jurkat; design: method as in PMID 26055397; conditions: at 100 μM; cited from earlier work
Raji = system: Raji; design: method as in PMID 26055397; conditions: at 100 μM; cited from earlier work
[11] = system: R388 conjugation (R388 derivative pJC01); design: method as in PMID 26330514; conditions: read-out: COIN-IC50; cited from earlier work
[12] = system: IncW plasmid R388 (derivative pSU2007::Tnlux) conjugation; conditions: COIN threshold; cited from earlier work

Compound | IC50 [3] [µM] | IC50 [4] [µM] | IC50 [5] [µM] | IC50 [6] [µM] | IC50 [7] [µM] | IC90 (S. aureus CECT 794) [µM] | IC90 (M. smegmatis DSMZ 43756) [µM] | IC90 (A. nidulans) [µM] | IC90 (C. albicans CECT 1394) [µM] | IC90 [8] [µM] | inhibition of superoxide anion production [9] | further results
Cc1ccc2c(c1/C=C/C=C/C(=O)O)C(C)CC(C)C2 (centres unmarked) [TZA-A, tanzawaic acid A] | 60 | 70 | 90 | 90 | 190 | 230 | 230 | > 230 | > 230 | > 100 | inhibitors of superoxide anion production | IC50 [1]: ~50 µM; COIN activity on R388 conjugation (CF) ([2]; plate-conjugation assay): inhibited R388 conjugation to levels similar to TZA-B; IC50 (Magnaporthe oryzae): 37 µM; activity against Brevibacillus brevis (Brevibacillus brevis): weak activity; activity against Mucor miehei (Mucor miehei): weak activity; activity against Paecilomyces variotii (Paecilomyces variotii): weak activity; activity against HeLaS3 cells (HeLaS3 cells): weak activity; effect on germination of Botrytis cinerea (Botrytis cinerea): not affected; effect on germination of Phytophthora infestans (Phytophthora infestans): not affected
CC1CC(C)C2C(C=CC(C)C2C=CC=CC(=O)O)C1 (centres unmarked) [TZA-B, tanzawaic acid B] | 90 | 90 | 180 | 180 | 180 | 120 | 120 | > 230 | > 230 | > 100 | inhibitor of superoxide anion production | R388 conjugation (relative CF) ([1]; 0.4 mM, relative to control without COINs (100%)): 2%; IC50 [1]: ~50 µM; inhibition of conjugation ([2]; 0.4 mM, IncW plasmid R388): ~100 fold; R388 conjugation (relative CF) ([2]; 0.4 mM, plate-conjugation assay): 2 ± 2%; inhibition of conjugation [10]: ~100 fold; effect on conjugation (IncN plasmid conjugation): not affected; effect on conjugation (IncP plasmid conjugation): not affected; effect on mobilization (MF) (mobilization of CloDF13): affected; effect on mobilization (MF) (mobilization of ColE1; helper plasmid R388, pOX38 or R100-1): affected; effect on mobilization (MF) (mobilization of ColE1; helper plasmid pRL443): unaffected; effect on mobilization (MF) (mobilization of RSF1010): unaffected; antimicrobial activity, concentration below which no effect (Klebsiella pneumoniae): ≥ 364 µM; antimicrobial activity, concentration below which no effect (Bacillus cereus): ≥ 364 µM; antimicrobial activity, concentration below which no effect (Proteus mirabilis): ≥ 364 µM; antimicrobial activity, concentration below which no effect (Enterococcus faecalis): ≥ 364 µM; antimicrobial activity, concentration below which no effect (C. albicans): ≥ 364 µM; response of K562 cells (K562): no response; response of U937 cells (U937): no response; response of Jurkat cells (Jurkat): no response; response of Raji cells (Raji): no response
CCCCCCCCCCCCCCCC#CC(=O)O [2-ODA, 2-octadecynoic acid] | 90 | 70 | 180 | 150 | 90 | 350 | 7 | 220 | 220 |  |  | IC50 [11]: ~50 µM
CCCCC/C=C\C/C=C\CCCCCCCC(=O)O [Linoleic acid] | 90 | 180 | 90 | 180 | 300 | > 360 | 360 | > 360 | > 360 | > 100 |  | IC50 [12]: ~50 µM
CC1C=CC2CC(C)(O)CC(C)C2C1/C=C/C=C/C(=O)O (centres unmarked) [TZA-E] |  |  |  |  |  |  |  |  |  |  | inhibitors of superoxide anion production | COIN activity on R388 conjugation (CF) ([2]; plate-conjugation assay): did not show significant COIN activity
CCCCCCCC/C=C\CCCCCCCC(=O)O [Oleic acid] | 40 | 180 | 80 | 180 | 350 | > 420 | > 420 | > 220 | > 220 | > 100 |  | IC50 [12]: ~50 µM
CCCCCCCCCCCCCC#CC(=O)O [2-HDA, 2-hexadecynoic acid] | 40 | 40 | 80 | 100 | 100 | 30 | 8 | 8 | < 4 |  |  | IC50 [11]: ~50 µM
